Values joined by “and” are separate entries in the source; they are usually repeats but may differ in a detail not shown here. Equal entries are not always repeated. After the bases stand the sugars from the 5' end (letter, count) and the backbone: PS all phosphorothioate, else s phosphorothioate and o phosphodiester by linkage. Methylation of C is not given here. e = 2'-O-(2-methoxyethyl) (MOE); k = constrained ethyl (cEt); d = 2'-deoxy (DNA)

For the first series, the target named is IRF4. The settings on record: ASO, H929, 0.04 µM.
For the sequence TAGTATGAGAAACGGC (sugars k3 d10 k3, PS), the target mRNA inhibition was 33% and 47%.

Still in this series, the particulars now being: ASO, KMS11, 0.2 µM.
In the case of TAGTATGAGAAACGGC (sugars k3 d10 k3, PS), the target mRNA inhibition is 65% and 85%.

Still in this series, the particulars now being: ASO, MM.1R, 1 µM.
“TAGTATGAGAAACGGC (sugars e1 k2 d9 k2 e2, PS)”: the target mRNA inhibition worked out at 38%.
Consider “TAGTATGAGAAACGGC (sugars k2 d9 e3 k2, PS)”, for which the target mRNA inhibition turned out to be 37%.
For the sequence “TAGTATGAGAAACGGC (sugars kdddddddddkekeke, PS)”, the target mRNA inhibition amounted to 32%.
The same measure, in the same setting: for “TAGTATGAGAAACGGC (sugars kkdddddddddkekek, PS)” the value was 27%; for TATAACGGTGTTTCAG (sugars k3 d10 k3, PS), 36%; for TATCATCCGAAAAGAC (sugars k3 d10 k3, PS), 3%.
TATCCTGTAGTATGAG (sugars k3 d10 k3, PS): the target mRNA inhibition was determined as 42%.
The same measure, in the same setting: the figure for TATTTATGAGCTTCCA (sugars k3 d10 k3, PS) is 21%; for TCACTACCTGCAGCCA (sugars k3 d10 k3, PS) it is 6%.
For the sequence TCAGAATGTTTCGACA (sugars k3 d10 k3, PS), the target mRNA inhibition came out at 6%.
Take TCAGTTACTCACGAGC (sugars k3 d10 k3, PS): the target mRNA inhibition was -3%.
Still for that read-out and setting: for TCATGTAAAGTCTGCT (sugars k3 d10 k3, PS) the value was 21%; for TCCAAAGGGTTCAGTG (sugars k3 d10 k3, PS), 7%; for TCCACTACCATATTGG (sugars k3 d10 k3, PS), -29%.
For the sequence TCCGAGCTCGGCCCCC (sugars k3 d10 k3, PS), the target mRNA inhibition is -10%.
The same measure, in the same setting: for TCCTATTATAGAGCAT (sugars k3 d10 k3, PS) the value was 3%.
The same measure, in the same setting: the figure for TCCTCCACTACCATAT (sugars k3 d10 k3, PS) is -13%; for TCCTGTAACGCACCCG (sugars k3 d10 k3, PS) it is -13%.
Consider TCGAGATCATAGTGCA (sugars k3 d10 k3, PS), for which the target mRNA inhibition came to 29%.
Consider TCTAACAGATAACGAG (sugars k3 d10 k3, PS), for which the target mRNA inhibition is -3%.
Same read-out and setting: the figure for “TCTATAGTGTTCCAGG (sugars k2 d9 e3 k2, PS)” is 50%.

Still in this series, the particulars now being: ASO, SK-MEL-28, 4 µM.
Consider TAGGTCATACCCTGGA (sugars k3 d10 k3, PS), for which the target mRNA inhibition is 72%.
On to TAGTAGGTAAGATCTC (sugars k3 d10 k3, PS), for which the target mRNA inhibition is 23%.
With TAGTATGAGAAACGGC (sugars k3 d10 k3, PS), the target mRNA inhibition stood at 78%.
As to TAGTCGACAGCTAAAG (sugars k3 d10 k3, PS), the target mRNA inhibition came out at 46%.
On the same count and under the same terms, for TAGTGCTGTGCAGACC (sugars k3 d10 k3, PS) the value was 32%; for TAGTGTCGCCATGGCT (sugars k3 d10 k3, PS), 69%.
On the same count and under the same terms, for TATACCAACGACAGCA (sugars k3 d10 k3, PS) the value was 49%.
With TATAGAATTAGGTGCT (sugars k3 d10 k3, PS), the target mRNA inhibition amounted to 40%.
TATAGCACTCTCCTAT (sugars k3 d10 k3, PS): the target mRNA inhibition is 2%.
TATATAGAATTAGGTG (sugars k3 d10 k3, PS): the target mRNA inhibition is -16%.
With TATCAAAGATCTCCAC (sugars k3 d10 k3, PS), the target mRNA inhibition is 25%.
On the same count and under the same terms, the figure for TATCAGATACACACCC (sugars k3 d10 k3, PS) is 19%; for TATCAGGATCTCAAGG (sugars k3 d10 k3, PS) it is 6%; for TATGACCCAGTGCTCT (sugars k3 d10 k3, PS) it is 40%.
On to TATGAGAAACGGCCTG (sugars k3 d10 k3, PS), for which the target mRNA inhibition was determined as 45%.
Take TATTTATGCCCTCGCT (sugars k3 d10 k3, PS): the target mRNA inhibition was found to be 26%.
In the case of TCAAAGCGCACCGCAG (sugars k3 d10 k3, PS), the target mRNA inhibition was 43%.
The same measure, in the same setting: the figure for TCAAATCTTCAACAGC (sugars k3 d10 k3, PS) is 76%.
For the sequence TCACACTGCCGTGATC (sugars k3 d10 k3, PS), the target mRNA inhibition came out at 22%.
For TCACAGAGCCAACTTA (sugars k3 d10 k3, PS), the target mRNA inhibition was -12%.
As to TCACGAGCACCTCAGA (sugars k3 d10 k3, PS), the target mRNA inhibition amounted to 36%.
Same read-out and setting: for TCACGCAGTGCACCTG (sugars k3 d10 k3, PS) the value was 46%; for TCAGAATTTAGTTAGT (sugars k3 d10 k3, PS), 33%.
Still for that read-out and setting: for TCAGACAGTGCGCCCC (sugars k3 d10 k3, PS) the value was 26%; for TCAGATGTCACTGATT (sugars k3 d10 k3, PS), 35%; for TCAGCAAGTGTCTTCC (sugars k3 d10 k3, PS), 66%.
For TCAGTTTGTGAAGCAT (sugars k3 d10 k3, PS), the target mRNA inhibition is 75% and 89%.
Same read-out and setting: for TCATAGCTAGTTCATT (sugars k3 d10 k3, PS) the value was 52%.
In the case of TCCAAACCTTAAGCTA (sugars k3 d10 k3, PS), the target mRNA inhibition was 37%.
Regarding TCCACCTGCATCGAGA (sugars k3 d10 k3, PS), the target mRNA inhibition stood at 47%.
In the case of TCCAGAAAATTCAGCT (sugars k4 d8 k4, PS), the target mRNA inhibition was 26%.
Same read-out and setting: for TCCAGGAAAGGCCAAG (sugars k3 d10 k3, PS) the value was 49%; for TCCAGGTGGCTCAGCA (sugars k4 d8 k4, PS), 34%; for TCCCACGAAGGGCAGT (sugars k3 d10 k3, PS), 6%.
Same read-out and setting: for TCCCTTAGGATAATAT (sugars k3 d10 k3, PS) the value was 48%.
Turning to TCCGGCTTGTCGATGC (sugars k3 d10 k3, PS), the target mRNA inhibition is 41%.
Take TCCTATGCTGAACCCC (sugars k3 d10 k3, PS): the target mRNA inhibition was found to be 36%.
On the same count and under the same terms, for TCCTCAAAGTCATTGC (sugars k4 d8 k4, PS) the value was 10%; for TCCTCTGGCCATTGTC (sugars k3 d10 k3, PS), 41%.
Same read-out and setting: for TCGCATAGAGCCCGTC (sugars k3 d10 k3, PS) the value was 57%; for TCGCATCCAGACCCTT (sugars k3 d10 k3, PS), 28%; for TCGGAACTTTCCTTTA (sugars k3 d10 k3, PS), 33%.
Still for that read-out and setting: for TCGGAGCTGAGGGCAG (sugars k3 d10 k3, PS) the value was 18%.
As to TCTAAAGTCCCATCGA (sugars k3 d10 k3, PS), the target mRNA inhibition was determined as 31%.
Regarding TCTAATAAATGTGCTC (sugars k3 d10 k3, PS), the target mRNA inhibition worked out at 44%.
Regarding TCTAATCCACAATCAG (sugars k3 d10 k3, PS), the target mRNA inhibition came out at 41%.
With TCTACAGAACACAAGA (sugars k3 d10 k3, PS), the target mRNA inhibition is -8%.
In the case of TCTACCTACTCCATCA (sugars k3 d10 k3, PS), the target mRNA inhibition amounted to 47%.

For the origin of these results see the OligoGym collection.
